Assay results taken from patent publication US6699895B2, “2-aminothiazoline derivatives and process for preparing the same” (Aventis Pharma S.A., priority 2000, dated 2004).

melting point: 125 to 127 °C
Compound: Cl.NC1=N[C@H](Cc2cccs2)CS1
